Species on record: Rattus norvegicus
Test: Open TG-GATES - Regimen: Daily Repeat
Format: toxicity, organism-based, Sprague-Dawley
Parameters: regimen Daily Repeat, gender Male, age 6 weeks
Conditions: in vivo, po, 2 mg/kg, route gavage, dose level Low; for APTT / Bas / Eos / Fbg / Hb / Ht / Lym / MCH / MCHC / MCV / Mono / Neu / PT / Plat / RBC / Ret / WBC: tissue Blood; for KIDNEY_TOTAL: tissue Kidney; for LIVER: tissue Liver; for A/G / ALP / ALT / AST / BUN / CRE / Ca / Cl / DBIL / GLC / IP / K / LDH / Na / PL / RALB / TBIL / TC / TG / TP / gamma-GTP: tissue Plasma

## CN(CCOc1ccc(CC2SC(=O)NC2=O)cc1)c1ccccn1.O=C(O)/C=C\C(=O)O (centres undefined) [ROSIGLITAZONE MALEATE]
72 h, time 3 day
  TERMINAL_BW: 243.4 g
  APTT: 15.7 s
  Bas: 0%
  Eos: 1%
  Fbg: 233.4 mg/dL
  Hb: 13.2 g/dL
  Ht: 40.2%
  Lym: 73%
  MCH: 20.7 pg
  MCHC: 32.7%
  MCV: 63.4 fL
  Mono: 7.4%
  Neu: 18.8%
  PT: 11.7 s
  Plat: 133 x10_4/uL
  RBC: 634.8 x10_4/ul
  Ret: 6.7%
  WBC: 88.6 x10_2/uL
  KIDNEY_TOTAL: 0.7 g
  LIVER: 12.2 g
  A/G: 2.1
  ALP: 1105.8 IU/L
  ALT: 36 IU/L
  AST: 64.2 IU/L
  BUN: 15.6 mg/dL
  CRE: 0.2 mg/dL
  Ca: 11.5 mg/dL
  Cl: 104.4 meq/L
  DBIL: 0.01 mg/dL
  GLC: 189.4 mg/dL
  IP: 8 mg/dL
  K: 4.6 meq/L
  LDH: 128.2 IU/L
  Na: 140.8 meq/L
  PL: 152.2 mg/dL
  RALB: 3.9 g/dL
  TBIL: 0.034 mg/dL
  TC: 83 mg/dL
  TG: 88.2 mg/dL
  TP: 5.8 g/dL
  gamma-GTP: 0 IU/L
[…], time 7 day
  TERMINAL_BW: 271.5 g
  APTT: 16.1 s
  Bas: 0%
  Eos: 1%
  Fbg: 246.6 mg/dL
  Hb: 13.3 g/dL
  Ht: 40.4%
  Lym: 77.6%
  MCH: 20.9 pg
  MCHC: 32.9%
  MCV: 63.5 fL
  Mono: 5.2%
  Neu: 16.2%
  PT: 11.5 s
  Plat: 134.4 x10_4/uL
  RBC: 636.8 x10_4/ul
  Ret: 5.1%
  WBC: 102.8 x10_2/uL
  KIDNEY_TOTAL: 0.7 g
  LIVER: 12.8 g
  A/G: 2
  ALP: 1242 IU/L
  ALT: 32.4 IU/L
  AST: 62.2 IU/L
  BUN: 19 mg/dL
  CRE: 0.5 mg/dL
  Ca: 11.4 mg/dL
  Cl: 104.6 meq/L
  DBIL: 0.012 mg/dL
  GLC: 183.4 mg/dL
  IP: 7.2 mg/dL
  K: 4.3 meq/L
  LDH: 118 IU/L
  Na: 140.8 meq/L
  PL: 144.6 mg/dL
  RALB: 3.8 g/dL
  TBIL: 0.034 mg/dL
  TC: 73.6 mg/dL
  TG: 100.6 mg/dL
  TP: 5.7 g/dL
  gamma-GTP: 0.6 IU/L
[…], time 14 day
  TERMINAL_BW: 343.6 g
  APTT: 15.3 s
  Bas: 0%
  Eos: 0.8%
  Fbg: 233.4 mg/dL
  Hb: 13.4 g/dL
  Ht: 40.9%
  Lym: 77.6%
  MCH: 20.2 pg
  MCHC: 32.8%
  MCV: 61.5 fL
  Mono: 5.4%
  Neu: 16.2%
  PT: 11.7 s
  Plat: 116.6 x10_4/uL
  RBC: 666 x10_4/ul
  Ret: 3.8%
  WBC: 109.2 x10_2/uL
  KIDNEY_TOTAL: 0.8 g
  LIVER: 15.1 g
  A/G: 2.1
  ALP: 1340.2 IU/L
  ALT: 35.2 IU/L
  AST: 64.8 IU/L
  BUN: 18 mg/dL
  CRE: 0.4 mg/dL
  Ca: 11.2 mg/dL
  Cl: 105.6 meq/L
  DBIL: 0.01 mg/dL
  GLC: 189.8 mg/dL
  IP: 7.8 mg/dL
  K: 4.4 meq/L
  LDH: 92.2 IU/L
  Na: 143.2 meq/L
  PL: 142.2 mg/dL
  RALB: 3.8 g/dL
  TBIL: 0.032 mg/dL
  TC: 70.4 mg/dL
  TG: 110 mg/dL
  TP: 5.7 g/dL
  gamma-GTP: 1 IU/L
[…], time 28 day
  TERMINAL_BW: 425.3 g
  APTT: 15.7 s
  Bas: 0%
  Eos: 1%
  Fbg: 236.8 mg/dL
  Hb: 14.4 g/dL
  Ht: 44%
  Lym: 83.2%
  MCH: 18.7 pg
  MCHC: 32.7%
  MCV: 57.2 fL
  Mono: 3.8%
  Neu: 12%
  PT: 11.9 s
  Plat: 108.5 x10_4/uL
  RBC: 769.2 x10_4/ul
  Ret: 2.2%
  WBC: 93.8 x10_2/uL
  KIDNEY_TOTAL: 0.7 g
  LIVER: 16.8 g
  A/G: 2
  ALP: 1172.5 IU/L
  ALT: 34 IU/L
  AST: 62.8 IU/L
  BUN: 18.2 mg/dL
  CRE: 0.4 mg/dL
  Ca: 10.6 mg/dL
  Cl: 105 meq/L
  DBIL: 0.01 mg/dL
  GLC: 185.2 mg/dL
  IP: 6.4 mg/dL
  K: 4.2 meq/L
  LDH: 90.2 IU/L
  Na: 141.2 meq/L
  PL: 119 mg/dL
  RALB: 3.9 g/dL
  TBIL: 0.035 mg/dL
  TC: 54.8 mg/dL
  TG: 126.5 mg/dL
  TP: 5.9 g/dL
  gamma-GTP: 0 IU/L
